In US11851406B2, “Positive allosteric modulators of the muscarinic acetylcholine receptor M1” (Vanderbilt University, priority 2018, dated 2023):

Key:
[1] = biological target: T1, human mAChR M1 (Homo sapiens, UniProt P11229); assay: mAChR M1 cell-based functional assay (calcium mobilization), PAM activity: increase in the EC20 acetylcholine response; conditions: CHO-K1 cells expressing hM1; calcium flux (Fluo-4); potentiation of EC20 acetylcholine response
T1 sequence (P11229 1-460): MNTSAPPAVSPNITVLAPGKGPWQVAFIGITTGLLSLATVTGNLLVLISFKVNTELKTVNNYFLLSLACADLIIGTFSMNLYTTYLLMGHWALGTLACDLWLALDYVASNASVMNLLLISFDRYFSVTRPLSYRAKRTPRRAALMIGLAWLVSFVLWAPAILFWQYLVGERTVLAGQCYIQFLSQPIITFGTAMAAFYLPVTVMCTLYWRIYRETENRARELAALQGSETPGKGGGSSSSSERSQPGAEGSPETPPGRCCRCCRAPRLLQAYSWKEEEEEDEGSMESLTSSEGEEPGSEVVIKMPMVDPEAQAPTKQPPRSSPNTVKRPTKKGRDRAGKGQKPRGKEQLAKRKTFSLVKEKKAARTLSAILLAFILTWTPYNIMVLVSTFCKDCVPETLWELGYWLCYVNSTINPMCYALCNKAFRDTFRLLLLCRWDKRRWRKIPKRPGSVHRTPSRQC
Outline: (§1)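 Calcium mobilization in CHO-K1 cells stably expressing hM1, Fluo-4 loaded; 11-point 1:3 compound series added at 4 s, acetylcholine EC20 at 144 s, kinetic fluorescence ratio at 1 Hz. Agonism: rise on compound alone, Emax relative to acetylcholine maximum; PAM: potentiation of EC20 response; four-parameter logistic fits.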

[2] = biological target: T1, human mAChR M1; assay: mAChR M1 cell-based functional assay (calcium mobilization), agonist activity upon compound addition alone; conditions: CHO-K1 cells expressing hM1; for EC50: calcium mobilization upon compound addition, no acetylcholine; for Emax: compound alone, relative to the maximum for acetylcholine
Outline: as §1

EC50 [1] [µM]	Emax [1] [%]	EC50 [2] [µM]	Emax [2] [%]	Compound
2.89	91	> 10	< 5	Cc1c(Cc2ccc(-n3cccn3)cc2)cc(C(=O)NC2CCOCC2(C)C)nc1-c1ccn(C)n1 (stereo not shown) [Compound 64, 4-(4-(1H-pyrazol-1-yl)benzyl)-N-(3,3-dimethyltetrahydro-2H-pyran-4-yl)-5-methyl-6-(1-methyl-1H-pyrazol-3-yl)picolinamide]
–	71	> 10	< 5	Cc1ccc(Cc2cc(C(=O)N[C@H]3CCOC[C@@H]3O)nc(-c3ccn(C)n3)c2C)cn1 [Compound 65, N-((3R,4S)-3-hydroxytetrahydro-2H-pyran-4-yl)-5-methyl-6-(1-methyl-1H-pyrazol-3-yl)-4-((6-methylpyridin-3-yl)methyl)picolinamide]
–	66	> 10	< 5	Cc1ccc(Cc2cc(C(=O)N[C@H]3CCCC[C@@H]3O)nc(-c3ccn(C)n3)c2C)cn1 [Compound 66, N-((1S,2S)-2-hydroxycyclohexyl)-5-methyl-6-(1-methyl-1H-pyrazol-3-yl)-4-((6-methylpyridin-3-yl)methyl)picolinamide]
–	38	> 10	< 5	Cc1ccc(Cc2cc(C(=O)N[C@H]3CCC[C@@H]3O)nc(-c3ccn(C)n3)c2C)cn1 [Compound 67, N-((1S,2S)-2-hydroxycyclopentyl)-5-methyl-6-(1-methyl-1H-pyrazol-3-yl)-4-((6-methylpyridin-3-yl)methyl)picolinamide]
